Measured values published in patent US20050260748A1, “Adult stem cells and uses thereof” (Michigan State University, priority 2004, published 2005).

Assays:
[1] = system: mesenchymal stem cells (adipose stem cells); assay: Effect of lovastatin on formation of calcified ECM during osteogenic differentiation of adipose stem cells; format: cell-based, human
Protocol: Adipose stem cells were tested for their ability to differentiate into osteocytes by culturing the stem cells in a medium composed of a modified MEM (Chang et al. (1981) Somatic Cell Genetics 7: 235) with 10% FBS and supplemented with 0.1 μM dexamethasone, 50 μM L-ascorbate-2-phosphate, and 10 mM […] disodium for about two to four weeks. Osteogenesis was identified by the presence of calcified extracellular matrix (ECM) in unstained cells (FIG. 32(a)) or using Von Kossa staining (FIG. 32(b)), the quantitative measurement of calcium in calcified ECM (Zuk et al. (2001) Tissue Engineering 7: 211), and the quantitative measurement of calcium in culture medium.
Osteoporosis is a disorder that occurs when the amount of bone removed from the skeleton by bone-resorbing osteoclasts exceeds the amount of bone formed by osteoblasts. Statins may decrease bone resorption by preventing osteoclast activation that is mediated by farnesyl-pp and geranylgeranyl-pp (Cruz et al., (2002) Cleveland Clinic J. Med. 69:277-288). Experiments were performed to test the effect of lovastatin on the formation of calcified ECM using adipocyte cells that were differentiated into osteocytes as described supra. […]

L1SV1A1 cells = assay: Albumin expression by immunostaining in immortal liver cell line cultured with hepatocyte growth factor; format: cell-based, human; details: HGF 20 ng/ml in modified Eagle's MEM with high calcium; days after initiation of induction
Protocol: Both immunostaining and Western blotting were used to characterize gene expression for clonally derived liver cell culture. For immunostaining, the cells grown in 35 mm plates were washed with phosphate-buffered saline (PBS) and fixed with 4% paraformaldehyde in PBS. After rinsing with PBS, the cells were permeabilized (0.5% Triton® X-100, 2% BSA, and 0.05% NaN3 in PBS) for 10 minutes. The cells were then incubated with the primary antibody diluted to the required concentration in PBS/Triton® X-100/BSA overnight at room temperature. After rinsing with PBS, the cells were incubated with a secondary antibody conjugated with FITC or Cy3 in PBS/Triton/BSA buffer for 1 hour at room temperature. […] After thoroughly washing the cells with PBS, the phase image and fluorescence of cells was observed and recorded using a Nikon Elipse TE 300 microscope connected to a digital camera and computer. […]
Furthermore, cells of the immortal liver cell line L1SV1A1, derived from HL1-1 (described infra), that were cultured in the modified Eagle's MEM (Chang et al. (1981) Somat. Cell Genet. 7: 235-53) containing hepatocyte growth factor (HGF) (He et al. (2003) Differentiation 71: 281-90) (20 ng/ml) expressed the hepatocyte protein, albumin, as detected by immunostaining (FIGS. 21(a)-21(c)). […]

Molecule | formation of calcified ECM (microscopic inspection) ([1]; 0.2 μM lovastatin added with osteogenic medium, compared to induced control cultures without lovastatin) | total calcium ([1]; 0.2 μM lovastatin in osteogenic medium vs induced control, FIG. 35) | expression of the hepatocyte protein albumin (immunostaining) (L1SV1A1 cells)
CC[C@H](C)C(=O)O[C@H]1C[C@@H](C)C=C2C=C[C@H](C)[C@H](CC[C@@H]3C[C@@H](O)CC(=O)O3)[C@H]21 [lovastatin] | significantly less formation of calcified ECM | confirmed this observation | 
hepatocyte growth factor: hepatocyte growth factor (HGF), used as hepatocyte differentiation agent |  |  | detectable at 33 days but not at 22 days
